Where a name gives a salt, the structure may show the parent alone.
Key:
[1] = system: Spontaneously Hypertensive Rats; test: Hypotensive activity: mean arterial blood pressure in spontaneously hypertensive rats; assay type: in vivo, rat (Okamoto strain, male); conditions: SHR, gavage, 100 mg/kg or less, two doses 24 h apart, measured at 28 hours; average MABP of rats used 160±1.5 mm
Experimental: The novel compounds of the invention are active hypotensive agents at nontoxic doses when administered to mammals. These compounds were tested for hypotensive activity by the method of P. S. Chan and D. W. Poorvin, Clinical and Experimental Hypertension, (6), 817-830 (1979). Male, 16 week old, spontaneously hypertensive rats of the Okamoto strain (Taconic Farms, Germantown, N.Y.) having an average means arterial blood pressure of 160±1.5 mm of mercury are used in the test. A rat is dosed by gavage with a test compound, suspended in 2% pre-boiled starch at a concentration of 50 mg/ml, at a dose of 100 mg/kg of body weight or less, with 0.9% sodium chloride loading at a dose of 25 ml/kg of body weight. A second identical dose of the test compound, without sodium chloride loading is given 24 hours later. At 28 hours after the initial dose the mean arterial blood pressure is measured by the method of Chan and Poorvin vide supra.

[2] = system: mice (hypoxic environment); test: Hypoxic survival test; assay type: in vivo, mouse (Royal Hart); conditions: intraperitoneal, 10% oxygen, 5 minutes; for responders at 100 mg/kg / responders at 10 mg/kg / responders at 200 mg/kg: Mus musculus, ip, 5 min, read-out: % Survivors; for responders at 100 mg/kg / % Survivors: 100 mg/kg
Experimental: The hypoxic survival test is a useful in vivo test for measuring the effectiveness of central nervous system-acting drugs in enhancing survival in an hypoxic environment relative to the known parasympathomimetic agent physostigmine.
Drugs are tested by intraperitoneal injection of groups of mice 30 minutes prior to placing them in an hypoxic environment and measuring survival. The rationale of this test is that drugs which enhance survival under hypoxic conditions without concomitant depression or sedative side effects, do so by enhancing brain metabolism, i.e., by improving energy supply relative to demand and so preserving normal brain function under conditions of reduced energy metabolism. Considering the dependence of the brain on a constant supply of energy, drugs which have this property may have many far-reaching therapeutic indications, including aiding recovery from stroke and closed head injury and reducing the deleterious effects of age-related central nervous system deficits.
In the hypoxic survival test, groups of 20 Royal Hart mice (6 weeks of age) were injected intraperitoneally with a test compound in saline at various doses ranging from 1 to 200 mg/kg, 30 minutes prior to placing them in an hypoxic mixture (10% oxygen, 90% […]) and measuring survival after 5 minutes.
A control group of 20 mice was injected intraperitoneally with saline (0.01 ml/g of body weight) and processed as described above.
Another group of 20 mice was injected intraperitoneally with 0.125 mg/kg of physostigmine in saline and processed as described above.

N#Cc1cnn2c1N(C(=O)CCN1CCN(Cc3ccc(Cl)cc3)CC1)CC=C2c1cccc(C(F)(F)F)c1 [Example 35, 4-[3-[4-[(Chlorophenyl)methyl]-1-piperazinyl]-1-oxopropyl]-4,5-dihydro-7-[3-(trifluoromethyl)phenyl]pyrazolo[1,5-a]pyrimidine-3-carbonitrile]
MABP/mmHg (mean arterial blood pressure) [1]: 138 mmHg

N#Cc1cnn2c1N(C(=O)CN1CCN(C(c3ccc(F)cc3)c3ccc(F)cc3)CC1)CC=C2c1cccc(C(F)(F)F)c1 [Example 40, 4-[[4-[Bis(4-fluorophenyl)methyl]-1-piperazinyl]acetyl]-4,5-dihydro-7-[3-(trifluoromethyl)phenyl]pyrazolo[1,5-a]pyrimidine-3-carbonitrile]
MABP/mmHg (mean arterial blood pressure) [1]: 121 mmHg

N#Cc1cnn2c1N(C(=O)CN1CCN(c3ccccc3)CC1)CC=C2c1cccc(C(F)(F)F)c1 [Example 25, 4,5-Dihydro-4-[(4-phenyl-1-piperazinyl)acetyl]-7-[3-(trifluoromethyl)phenyl]pyrazolo[1,5-a]pyrimidine-3-carbonitrile]
MABP/mmHg (mean arterial blood pressure) [1]: 137 mmHg

CC1=C(c2cccc(Cl)c2)n2ncc(C#N)c2N(C(=O)CN2CCN(Cc3ccccc3)CC2)C1 [Example 113, 7-(3-Chlorophenyl)-4.5-dihydro-6-methyl-4-[[4-(phenylmethyl)piperazinyl]acetyl]pyrazolo[1,5-a]pyrimidine-3-carbonitrile, dihydrochloride]
responders at 100 mg/kg [2]: 30%

COc1cccc(CN2CCN(CC(=O)N3CC(C)=C(c4cccc(Cl)c4)n4ncc(C#N)c43)CC2)c1 [Example 143, 7-(3-Chlorophenyl)-4,5-dihydro-4-[[4-[(3-methoxyphenyl)methyl]-1-piperazinyl]acetyl]-6-methylpyrazolo[1,5-a]pyrimidine-3-carbonitrile, dihydrochloride]
responders at 100 mg/kg [2]: 65%

CC1=C(c2cccc(Cl)c2)n2ncc(C#N)c2N(C(=O)CN2CCN(Cc3cccc(C(F)(F)F)c3)CC2)C1 [7-(3-Chlorophenyl)-4,5-dihydro-6-methyl-4-[[4-[[3-(trifluoromethyl)phenyl]methyl]-1-piperazinyl]acetyl]pyrazolo[1,5-a]pyrimidine-3-carbonitrile, sesquihydrochloride]
responders at 100 mg/kg [2]: 35%

N#Cc1cnn2c1N(C(=O)CN1CCN(C(=O)OCc3ccccc3)CC1)CC=C2c1cccc(C(F)(F)F)c1 [Example 158, 4-[2-[3-Cyano-7-[3-(trifluoromethyl)phenyl]pyrazolo[1,5-a]pyrimidin-4(5H)-yl]-2-oxoethyl]-1-piperazinecarboxylic acid, phenylmethyl ester]
responders at 100 mg/kg [2]: 55%

N#Cc1cnn2c1N(C(=O)CN1CCN(C(=O)Nc3ccc(F)cc3F)CC1)CC=C2c1cccc(C(F)(F)F)c1 [Example 107]
responders at 100 mg/kg [2]: 20%

Cc1cccc(C2=CCN(C(=O)CN3CCN(Cc4ccccc4)CC3)c3c(C#N)cnn32)c1 [Example 149, 4,5-Dihydro-7-(3-methylphenyl)-4-[[4-(phenylmethyl)-1-piperazinyl]acetyl]pyrazolo[1,5-a]pyrimidine-3-carbonitrile, hydrochloride]
responders at 100 mg/kg [2]: 55%

N#Cc1cnn2c1N(C(=O)CN1CCN(Cc3cccc(C(F)(F)F)c3)CC1)CC=C2c1cccc(C(F)(F)F)c1 [Example 145, 4,5-Dihydro-7-[3-(trifluoromethyl)phenyl-4-[[4-[[3-(trifluoromethyl)phenyl]methyl]-1-piperazinyl]acetyl]pyrazolo[1,5-a]pyrimidine-3-carbonitrile, dihydrochloride]
% Survivors ([2]; listed as 4,5-Dihydro-4-[[4-[(3-trifluoromethyl-phenyl)methyl]-1-piperazinyl]acetyl]-7-[3-, dihydrochloride): 85%

O=C(CN1CCN(Cc2ccccc2)CC1)N1CC=C(c2cccc(C(F)(F)F)c2)n2ncc(Br)c21 [Example 154, 3-Bromo-4,5-dihydro-4-[[4-(phenylmethyl)-1-piperazinyl]acetyl]-7-[3-(trifluoromethyl)phenyl]pyrazolo[1,5-a]pyrimidine, dihydrochloride]
responders at 10 mg/kg [2]: 20%

N#Cc1cnn2c1N(C(=O)CN1CCN(Cc3ccccc3C(F)(F)F)CC1)CC=C2c1ccc(Cl)cc1 [Example 59, 7-(4-Chlorophenyl)-4,5-dihydro-4-[[4-[[2-(trifluoromethyl)phenyl]methyl]-1-piperazinyl]acetyl]pyrazolo[1,5-a]pyrimidine-3-carbonitrile]
responders at 10 mg/kg [2]: 55%
responders at 100 mg/kg [2]: 90%

COc1ccc(C(=O)N2CCN(CC(=O)N3CC=C(c4cccc(C(F)(F)F)c4)n4ncc(C#N)c43)CC2)cc1.Cl [Example 163, 4,5-Dihydro-4-[[4-(4-methoxybenzoyl)-1-piperazinyl]acetyl]-7-[3-(trifluoromethyl)phenyl]pyrazolo[1,5-a]pyrimidine-3-carbonitrile, monohydrochloride]
% Survivors [2]: 25%

N#Cc1cnn2c1N(C(=O)CN1CCN(Cc3ccccc3)CC1)CC=C2c1ccc(Cl)cc1 [Example 58, 7-(4-Chlorophenyl)-4,5-dihydro-4-[[4-(phenylmethyl)-1-piperazinyl]acetyl]pyrazolo[1,5-a]pyrimidine-3-carbonitrile]
responders at 10 mg/kg [2]: 50%
responders at 100 mg/kg [2]: 82.5%

N#Cc1cnn2c1N(C(=O)CN1CCN(C(=O)Nc3ccc(Cl)c(C(F)(F)F)c3)CC1)CC=C2c1cccc(C(F)(F)F)c1 [Example 106, N-[4-Chloro-3-(trifluoromethyl)phenyl]-4-[2-[3-cyano-7-[3-(trifluoromethyl)phenyl)pyrazolo[1.5-a]pyrimidin-4(5H)-yl]-2-oxoethyl]-1-piperazinecarboxamide]
responders at 100 mg/kg [2]: 15%

CC1=C(c2cccc(Cl)c2)n2ncc(C#N)c2N(C(=O)CN2CCN(Cc3ccccc3F)CC2)C1 [Example 157, 7-(3-Chlorophenyl)-4-[[4-[(2-fluorophenyl)methyl]-1-piperazinyl]acetyl]-4,5-dihydro-6-methylpyrazolo[1,5-a]pyrimidine-3-carbonitrile, dihydrochloride]
responders at 100 mg/kg [2]: 45%

Cl.Cl.N#Cc1cnn2c1N(C(=O)CN1CCN(CCc3ccccc3)CC1)CC=C2c1cccc(C(F)(F)F)c1 [Example 132, 4,5-Dihydro-4-[[4-(2-phenylethyl)-1-piperazinyl)acetyl]-7-[3-(trifluoromethyl)phenyl]pyrazolo[1,5-a]pyrimidine-3-carbonitrile, dihydrochloride]
% Survivors [2]: 60%

Cc1ccc(C)c(N2CCN(CC(=O)N3CC=C(c4cc(Cl)ccc4Cl)n4ncc(C#N)c43)CC2)c1 [Example 66, 7-(2,5-Dichlorophenyl)-4-[[4-(2,5-dimethylphenyl)-1-piperazinyl]acetyl]-4,5-dihydropyrazolo[1,5-a]pyrimidine-3-carbonitrile]
responders at 100 mg/kg [2]: 45%
responders at 200 mg/kg [2]: 80%

N#Cc1cnn2c1N(C(=O)CN1CCN(c3ccccc3)CC1)CC=C2c1cc(Cl)ccc1Cl [7-(2,5-Dichlorophenyl)-4,5-dihydro-4-[(4-phenyl-1-piperazinyl)acetyl]pyrazolo[1,5-a]pyrimidine-3-carbonitrile]
responders at 100 mg/kg [2]: 70%

CCC1=C(c2cccc(C(F)(F)F)c2)n2ncc(C#N)c2N(C(=O)CN2CCN(Cc3ccccc3)CC2)C1 [Example 140, 4,5-Dihydro-6-ethyl-4[[4-(phenylmethyl)-1-piperazinyl]acetyl]7-[3-(trifluoromethyl)phenyl]pyrazolo[1,5-a]pyrimidine-3-carbonitrile]
responders at 200 mg/kg [2]: 42%

CC1C=C(c2cccc(C(F)(F)F)c2)n2ncc(C#N)c2N1C(=O)CN1CCN(Cc2ccccc2)CC1 (centres unmarked) [Example 72, 4,5-Dihydro-5-methyl-4-[[4-(phenylmethyl)-1-piperazinyl]acetyl]-7-[3-(trifluoromethyl)phenyl]pyrazolo[1,5-a]pyrimidine-3-carbonitrile]
% Survivors [2]: 25%

COc1cccc(CN2CCN(CC(=O)N3CC=C(c4ccccc4)n4ncc(C#N)c43)CC2)c1 [Example 150, 4,5-Dihydro-4-[[4-[(3-methoxyphenyl)methyl]-1-piperazinyl]acetyl]-7-phenylpyrazolo[1,5-a]pyrimidine-3-carbonitrile, dihydrochloride]
responders at 10 mg/kg [2]: 45%

N#Cc1cnn2c1N(C(=O)CN1CCN(Cc3ccccc3C(F)(F)F)CC1)CC=C2c1cccc(C(F)(F)F)c1 [Example 152, 4,5-Dihydro-7-[3-(trifluoromethyl)phenyl]-4-[[4-[[2-(trifluoromethyl)phenyl]methyl]-1-piperazinyl]acetyl]pyrazolo[1,5-]pyrimidine-3-carbonitrile dihydrochloride]
responders at 10 mg/kg [2]: 30%

Source: patent publication US4963553A, “4-[(substituted) alkylcarbonyl]-4,5-dihydro- and -4,5,6,7-tetrahydro-7-[(substituted)phenyl]pyrazolo[1,5-a]pyrimidines” (American Cyanamid Co., priority 1988, dated 1990)
